In patent publication US9018173B2, “Materials and methods for suppressing inflammatory and neuropathic pain” (Indiana University Research and Technology Corp., priority 2010, dated 2015):
Residues, ends and D or L forms follow the SMILES beside them.

Experiments:
[1] = tested on: anxiety-associated behavior; experiment: Light-Dark Box test (LDBT); type: in vivo, C57BL6 mice; details: for Light-Dark Box: Dark box latency to exit / Light-Dark Box: Light box entries: C57BL6 mice, 1 h after injection, 5 min test
Procedure: The light-dark box test and the elevated plus maze were used as measures of anxiety-associated behaviors. The tail suspension test was performed to evaluate despair- and depression-associated behavior. Anxiety-behavior testing Anxiety occurs when there is conflict between risk and reward. The Light-Dark Box test (LDBT) and the elevated plus maze (EPM) are accepted tests of anxiety-associated behavior that assess the conflict mice have against hiding in enclosed dark areas (i.e., dark box or closed arm) and their tendency to explore novel environments (i.e., white box or open arm). Lalonde, R. & Strazielle, C. […] J. Neurosci. Methods. 171, 48-52 (2008). These tests are also sensitive to anxiolytic drug treatments. Light-Dark Box test as a measure of anxiety-associated behavior. For the light-dark box test (LDBT), there were two adjoined light and dark compartments boxes with a 7 cm square opening to allow mice to move between them. The black box was covered (20 cm×40 cm×30 cm height) and the white box (20 cm×40 cm×30 cm height) was open and illuminated (40 W). Each mouse was placed into the white compartment and the white compartment was video recorded for later analyses using ANY-maze software (version 4.75, Stoelting, Wood Dale, Ill.) which is a video tracking system designed to automate testing in behavioral experiments. The main parameters were duration of time spent in the light box; the latency to enter the dark box; and the number of transitions between the light and dark box.

[2] = target: T1, CaV2.2 (Rattus norvegicus, UniProt Q02294); experiment: Peptide spot array far-Western: CaV2.2 binding to 15-mer CRMP-2 peptides; details: 15-mer peptide #96 overlaid with spinal cord lysates / rat brain synaptosomes
T1 construct: incubated with a purified synaptosome fraction enriched in Ca^2+ channels; from tissue; host or cells: P1 neonatal rat brain synaptosomes, enriched on WGA-Sepharose and heparin-agarose
T1 sequence (Q02294 whole entry): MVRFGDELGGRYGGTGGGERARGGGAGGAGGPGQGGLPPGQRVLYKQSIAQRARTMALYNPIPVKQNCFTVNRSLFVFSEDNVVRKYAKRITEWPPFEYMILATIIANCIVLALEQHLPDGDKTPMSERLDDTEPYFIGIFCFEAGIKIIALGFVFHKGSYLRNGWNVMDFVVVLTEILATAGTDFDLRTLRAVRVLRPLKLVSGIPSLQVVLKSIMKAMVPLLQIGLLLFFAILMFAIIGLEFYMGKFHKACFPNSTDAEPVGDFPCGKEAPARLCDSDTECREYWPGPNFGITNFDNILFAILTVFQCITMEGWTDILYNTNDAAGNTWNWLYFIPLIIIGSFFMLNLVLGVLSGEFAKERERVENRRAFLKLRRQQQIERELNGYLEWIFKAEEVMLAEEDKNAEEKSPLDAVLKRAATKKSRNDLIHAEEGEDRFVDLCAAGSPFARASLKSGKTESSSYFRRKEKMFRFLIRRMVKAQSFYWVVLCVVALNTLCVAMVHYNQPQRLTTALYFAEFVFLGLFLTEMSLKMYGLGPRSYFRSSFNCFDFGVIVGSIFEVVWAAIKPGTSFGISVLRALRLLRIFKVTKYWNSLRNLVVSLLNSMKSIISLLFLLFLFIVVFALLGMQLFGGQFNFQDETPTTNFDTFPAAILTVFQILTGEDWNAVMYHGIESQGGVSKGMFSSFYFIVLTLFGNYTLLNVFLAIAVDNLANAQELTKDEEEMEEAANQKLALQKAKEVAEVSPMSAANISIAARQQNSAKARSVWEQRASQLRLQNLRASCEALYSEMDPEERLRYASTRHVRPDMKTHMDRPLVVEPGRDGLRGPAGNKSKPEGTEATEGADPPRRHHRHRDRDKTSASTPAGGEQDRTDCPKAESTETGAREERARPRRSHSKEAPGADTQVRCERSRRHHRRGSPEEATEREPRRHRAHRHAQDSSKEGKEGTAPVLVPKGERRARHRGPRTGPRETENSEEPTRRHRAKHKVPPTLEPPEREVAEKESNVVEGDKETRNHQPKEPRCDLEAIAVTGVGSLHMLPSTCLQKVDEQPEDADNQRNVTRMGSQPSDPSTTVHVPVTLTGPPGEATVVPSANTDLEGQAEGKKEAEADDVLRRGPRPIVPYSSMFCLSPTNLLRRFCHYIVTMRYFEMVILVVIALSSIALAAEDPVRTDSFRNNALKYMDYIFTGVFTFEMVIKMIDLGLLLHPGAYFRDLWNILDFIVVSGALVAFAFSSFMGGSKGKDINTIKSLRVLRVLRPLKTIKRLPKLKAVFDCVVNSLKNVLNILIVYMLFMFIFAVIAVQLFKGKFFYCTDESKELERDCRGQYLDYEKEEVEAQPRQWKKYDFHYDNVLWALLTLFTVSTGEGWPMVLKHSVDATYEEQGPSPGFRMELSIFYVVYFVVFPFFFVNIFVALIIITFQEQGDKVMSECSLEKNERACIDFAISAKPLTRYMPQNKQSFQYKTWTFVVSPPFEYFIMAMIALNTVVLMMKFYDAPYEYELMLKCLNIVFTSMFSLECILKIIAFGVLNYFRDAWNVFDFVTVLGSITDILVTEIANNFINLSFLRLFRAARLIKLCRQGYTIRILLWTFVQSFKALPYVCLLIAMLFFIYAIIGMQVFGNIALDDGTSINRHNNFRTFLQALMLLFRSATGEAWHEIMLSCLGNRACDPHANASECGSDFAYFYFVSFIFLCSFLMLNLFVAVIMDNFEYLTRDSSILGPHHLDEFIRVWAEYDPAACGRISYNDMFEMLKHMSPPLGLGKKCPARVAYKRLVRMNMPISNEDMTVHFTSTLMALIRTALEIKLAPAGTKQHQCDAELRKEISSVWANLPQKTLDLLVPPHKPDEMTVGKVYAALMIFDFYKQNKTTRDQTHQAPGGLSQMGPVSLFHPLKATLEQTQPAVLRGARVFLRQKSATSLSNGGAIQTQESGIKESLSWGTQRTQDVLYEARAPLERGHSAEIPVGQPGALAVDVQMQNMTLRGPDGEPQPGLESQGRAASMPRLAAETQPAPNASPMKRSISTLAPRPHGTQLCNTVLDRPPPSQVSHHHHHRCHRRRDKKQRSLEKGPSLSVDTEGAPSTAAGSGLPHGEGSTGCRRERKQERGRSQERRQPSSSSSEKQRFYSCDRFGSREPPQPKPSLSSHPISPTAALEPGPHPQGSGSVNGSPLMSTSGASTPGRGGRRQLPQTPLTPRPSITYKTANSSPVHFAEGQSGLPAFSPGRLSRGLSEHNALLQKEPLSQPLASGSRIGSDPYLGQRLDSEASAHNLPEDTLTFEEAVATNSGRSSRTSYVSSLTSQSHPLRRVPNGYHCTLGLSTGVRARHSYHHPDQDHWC
Procedure: Purification/Enrichment of Ca^2+ channels from synaptosomes. In order to prepare a rich source of CaV2.2 for the far-Western analyses (see below), synaptosomes from P1 neonatal rat brains were solubilized with digitonin and enriched by chromatography on WGA-Sepharose as described previously. Briefly, 30 PN1 neonatal rat brains were homogenized in 180 ml of 320 mM sucrose with a glass-Teflon homogenizer. After a short centrifugation (5000 rpm, 2 min), the supernatant (SN) was centrifuged (42,000 rpm, 60 min). The membranes were solubilized with 1.2% digitonin, 80 mM sodium phosphate buffer, pH 7.4 for 20 min. Unsolubilized material was removed by the centrifugation as before, and the supernatant (S3) was poured over a 40 ml WGA-Sepharose column (50 ml/h). After incubation for 1 hr at 4° C., the column was washed with 10 column volumes of 0.1% digitonin, 75 mM NaCl, 50 mM sodium phosphate, 10 mM Tris-HCl (pH 7.4) at a flow rate of 50 ml/hr. The glycoproteins bound to the WGA-Sepharose column were eluted with 100 mM N-acetyl-D-glucosamine (Sigma, St. Louis, Mo.) in the same buffer at a flow rate of 50 ml/hr. Three milliliter fractions were collected and the protein concentration of each fraction was determined by BCA protein assay kit (Thermo Fisher Scientific, Shelbyville, Ind.). […]

| Compound | LDBT number of transitions between the light and dark box ([1]; 1 mg/kg, compared to TAT-Scramble) | Light-Dark Box: Dark box latency to exit ([1]; 0.1 mg/kg i.p.) | Light-Dark Box: Light box entries ([1]; 0.1 mg/kg i.p.) | Light-Dark Box: Dark box latency to exit ([1]; 1 mg/kg i.p.) | Light-Dark Box: Light box entries ([1]; 1 mg/kg i.p.) | Light-Dark Box: Dark box latency to exit ([1]; 10 mg/kg i.p.) | Light-Dark Box: Light box entries ([1]; 10 mg/kg i.p.) | binding to CaV2.2 [2] |
| --- | --- | --- | --- | --- | --- | --- | --- | --- |
| CC(C)C[C@H](NC(=O)CNC(=O)[C@H](CCCNC(=N)N)NC(=O)[C@@H]1CCCN1C(=O)[C@@H](NC(=O)CNC(=O)[C@H](CCCNC(=N)N)NC(=O)[C@H](CC(C)C)NC(=O)[C@H](CCC(=O)O)NC(=O)[C@H](C)NC(=O)[C@H](CC(C)C)NC(=O)[C@H](CCCNC(=N)N)NC(=O)[C@H](CO)NC(=O)[C@H](CCCNC(=N)N)NC(=O)[C@H](C)NC(=O)[C@H](CCCNC(=N)N)NC(=O)[C@H](CCCNC(=N)N)NC(=O)[C@H](CCCNC(=N)N)NC(=O)[C@H](CCC(N)=O)NC(=O)[C@H](CCCNC(=N)N)NC(=O)[C@H](CCCNC(=N)N)NC(=O)[C@H](CCCCN)NC(=O)[C@H](CCCCN)NC(=O)[C@H](CCCNC(=N)N)NC(=O)CNC(=O)[C@@H](N)Cc1ccc(O)cc1)C(C)C)C(=O)O [TAT-CBD3] (H-YGRKKRRQRRRARSRLAELRGVPRGL-OH; N-terminus and C-terminus assumed) | increased | 66.0 ± 17.3 s | 10.6 ± 1.2 | 36.9 ± 5.8 s | 13.5 ± 1.1 | 49.5 ± 9.6 s | 11.5 ± 1.2 | – |
| ARSRLAELRGVPRGL (CBD3) | – | – | – | – | – | – | – | bound to the CaV2.2 |
